Source: patent US9199993B2, “8-azabicyclo[3.2.1]octyl-2-hydroxybenzamide compounds as mu opioid receptor antagonists” (THERAVANCE BIOPHARMA R&D IP, LLC, priority 2007, dated 2015)
Like-named read-outs stand apart in the source and are kept apart here.

Legend:
human mu opioid receptor [1] = target: T1, human mu opioid receptor (Homo sapiens, UniProt P35372); test: Radioligand binding assay on human mu opioid receptor
T1 construct: host or cells: CHO-K1

human mu opioid receptor [2] = target: T1, human mu opioid receptor; test: biochemical; conditions: read-out: intrinsic activity (IA), bound [35S]GTPγS relative to DAMGO (IA=100)
[3] = tested on: loperamide-induced delayed gastric emptying; test: Rat gastric emptying assay (reversal of loperamide-induced delayed gastric emptying); assay type: in vivo; conditions: administered orally, loperamide 1 mg/kg s.c., gastric emptying model

T1 sequence (P35372 whole entry): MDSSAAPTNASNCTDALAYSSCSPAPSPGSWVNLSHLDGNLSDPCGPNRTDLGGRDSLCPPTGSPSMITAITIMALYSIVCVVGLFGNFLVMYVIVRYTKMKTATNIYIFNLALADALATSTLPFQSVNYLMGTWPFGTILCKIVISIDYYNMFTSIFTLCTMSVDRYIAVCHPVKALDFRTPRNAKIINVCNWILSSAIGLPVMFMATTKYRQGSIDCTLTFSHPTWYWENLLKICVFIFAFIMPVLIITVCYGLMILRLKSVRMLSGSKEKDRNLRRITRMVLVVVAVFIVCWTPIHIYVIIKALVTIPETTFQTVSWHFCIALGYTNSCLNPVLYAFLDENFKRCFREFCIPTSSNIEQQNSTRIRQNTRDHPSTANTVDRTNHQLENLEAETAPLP

Structure (SMILES): CCC(CC)CN(CCN1[C@@H]2CC[C@H]1C[C@@H](c1cccc(C(N)=O)c1O)C2)C(=O)[C@@H](O)CO [Example 1, 3-endo-(8-{2-[((S)-2,3-Dihydroxypropionyl)-(2-ethylbutyl)-amino]ethyl}-8-azabicyclo[3.2.1]oct-3-yl)-2-hydroxybenzamide]
- Ki (human mu opioid receptor [1]): 0.1 nM
- Emax (human mu opioid receptor [2]): -1%
- ID50, dose required for 50% reversal of the effects of loperamide [3]: 0.11 mg/kg

Structure (SMILES): CCC(CC)CN(CCN1[C@@H]2CC[C@H]1C[C@@H](c1cccc(C(N)=O)c1O)C2)C(=O)CO [Example 2, 3-endo-(8-2-[(2-Ethylbutyl)-(2-hydroxyacetyl)amino]-ethyl-8-azabicyclo[3.2.1]oct-3-yl)-2-hydroxybenzamide]
- Ki (human mu opioid receptor [1]; displacement of [3H]-Diprenorphine 0.5 nM, CHO-K1 cell membranes, read-out: pKi at the human mu opioid receptor (converted)): 0.1 nM

Structure (SMILES): NC(=O)c1cccc(C2CC3CCC(C2)N3CCN(CC2CCC(F)(F)CC2)C(=O)CO)c1O (stereo not drawn) [Example 4, 3-endo-(8-2-[(4,4-Difluorocyclohexylmethyl)-(2-hydroxyacetyl)-amino]ethyl-8-azabicyclo[3.2.1]oct-3-yl)-2-hydroxybenzamide]
- ID50, dose required for 50% reversal of the effects of loperamide [3]: 0.014 mg/kg

Structure (SMILES): CC(C)(C)CN(CCN1[C@@H]2CC[C@H]1C[C@@H](c1cccc(C(N)=O)c1O)C2)C(=O)[C@@H](O)CO [Example 6, 3-endo-(8-{2-[((S)-2,3-Dihydroxypropionyl)-(2,2-dimethylpropyl)amino]ethyl}-8-azabicyclo[3.2.1]oct-3-yl)-2-hydroxybenzamide]
- Ki (human mu opioid receptor [1]): 0.251 nM
- Emax (human mu opioid receptor [2]): 9%
- ID50, dose required for 50% reversal of the effects of loperamide [3]: 0.42 mg/kg
